Patent publication US5032573A, “Homologs of aprotinin produced from a recombinant host, process, expression vector and recombinant host therefor and pharmaceutical use thereof” (Bayer Aktiengesellschaft, priority 1989, dated 1991)
One block for each substance: values may come before it.

Experiments:
Type in all cases: biochemical
porcine trypsin [1] = target: T1, porcine trypsin (Sus scrofa, UniProt P00761); experiment: Trypsin inhibition assay with Benzoyl-Arg-pNA as the substrate; conditions: for ΔE/10 minutes: control without inhibitor 0.91
T1 construct: purchased Merck 8350
T1 sequence (P00761 9-231): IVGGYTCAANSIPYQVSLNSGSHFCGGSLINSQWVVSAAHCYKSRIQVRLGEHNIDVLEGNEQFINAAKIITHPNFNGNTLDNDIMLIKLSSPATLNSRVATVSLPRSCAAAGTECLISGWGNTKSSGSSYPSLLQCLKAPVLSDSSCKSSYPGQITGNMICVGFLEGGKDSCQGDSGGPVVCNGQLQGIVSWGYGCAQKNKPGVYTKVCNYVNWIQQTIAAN
Experimental: (§1) Glu-52-Aprotinin obtained after cleavage with BrCN was compared with authentic aprotinin for its inhibitory activity against porcine trypsin. Both substrates Pyrglu-Gly-Arg-pNA and Benzoyl-Arg-pNa were used for trypsin determination.
(§2) The stock solution for aprotinin was 1 μg/ml, and for Glu-52-aprotinin 0.6 μg/ml. 0-100-200-300-400-500 μl of this stock solutions were used in the test with Benzol-Arg-pNA. In the test with Pyrglu-Gly-Arg-pNA,0-3-6-9-12-15 μl were used.
(§3) Inhibition of trypsin was determined by means of either the substrate benzoyl-DL-arginine-p-nitroanilide (Merck 1670) or pyroglutamyl-glycyl-arginine-p-nitroanilide, which was synthesized from commercially available pyroglutamyl-glycine (SENN 6886) and arginine-p-nitroanilide×HBr (SENN 9123) by means of the dicyclohexyl carbodiimide condensation method. This substrate is also sold under the designation S-2444 by KABI as an urokinase substrate.
(§4) The former has the advantage of giving a linear response to the amount of Aprotinin in the sample, but has a low sensitivity. The latter one has a high sensitivity, but due to the dissociation of the aprotinin-trypsin-complex at those low concentrations, the dose-response-curve is non linear.
(§5) The buffer for the measurement of trypsin and trypsin inhibitors is 0.2M Tris, pH 8.0 containing 0.01M CaCl2 and 0.05% Tween 80®.
(§6) The determinations can be performed in any spectral photometer which allows readings of optical densities (ODs) at 400 nm. For fully automated measurements, the photometers have to be equipped with a micro processor or must be interfaced with a suitable personal computer.
(§7) Disposable 1 cm semi micro plastic cuvettes are used for all assays. ODs are read in time intervals of 1 minute over 8 cycles at ambient temperature. The average increase of OD per minute is arbitrarily taken as the activity unit.
(§8) For inhibition assays, porcine trypsin (Merck 8350) solution (in 0.001N HCl/50% glycerol) is mixed with the inhibitor sample, adjusted to 500 μl with buffer and incubated for 10 minutes at ambient temperature. The reaction is initiated by the addition of substrate solution. Inhibitory activities are taken from a calibration curve or automatically calculated by computer programs developed especially for this purpose. […]

porcine trypsin [2] = target: T1, porcine trypsin; experiment: Trypsin inhibition assay with Pyr-Glu-Gly-Arg-pNA as the substrate
Experimental: as §1, §2, §3, §4, §5, §6, §7, §8

anionic human Trypsin = anionic human Trypsin (Homo sapiens, UniProt P07478); experiment: Kinetic studies, Ki by the method of Empie and Laskowski
anionic human Trypsin, sequence (P07478 24-247): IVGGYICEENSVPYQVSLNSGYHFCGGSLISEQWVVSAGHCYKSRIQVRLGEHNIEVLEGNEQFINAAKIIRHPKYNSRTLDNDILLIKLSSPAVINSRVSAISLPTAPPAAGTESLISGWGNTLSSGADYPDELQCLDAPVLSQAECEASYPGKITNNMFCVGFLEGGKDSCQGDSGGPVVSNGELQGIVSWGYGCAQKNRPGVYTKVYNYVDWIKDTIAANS
Experimental: (§9) The Ki values were determined by the method of M. W. Empie and M. Laskowski, Jr., Biochem. 21, 2274 (1982).

cationic human Trypsin = cationic human Trypsin (Homo sapiens, UniProt P07477); experiment: as above
Experimental: as §9

[3] = substrate Benzoyl-Arg-pNA, amount inhibitor per assay 300 ng
[4] = substrate Pyr-Glu-Gly-Arg-pNA, amount inhibitor per assay 9 ng, control without inhibitor 0.85 (aprotinin), 0.84 (Glu-52-aprotinin)

ΔE/10 minutes (porcine trypsin [1]; substrate Benzoyl-Arg-pNA, amount inhibitor per assay 100 ng): 0.76
ΔE/10 minutes (porcine trypsin [1]; substrate Benzoyl-Arg-pNA, amount inhibitor per assay 200 ng): 0.57
ΔE/10 minutes (porcine trypsin [1]; [3]): 0.39
ΔE/10 minutes (porcine trypsin [1]; substrate Benzoyl-Arg-pNA, amount inhibitor per assay 400 ng): 0.08
ΔE/10 minutes (porcine trypsin [1]; substrate Benzoyl-Arg-pNA, amount inhibitor per assay 500 ng): 0.00
ΔE/10 minutes (porcine trypsin [2]; substrate Pyr-Glu-Gly-Arg-pNA, amount inhibitor per assay 3 ng, control without inhibitor 0.85): 0.62
ΔE/10 minutes (porcine trypsin [2]; substrate Pyr-Glu-Gly-Arg-pNA, amount inhibitor per assay 6 ng, control without inhibitor 0.85): 0.39
ΔE/10 minutes (porcine trypsin [2]; [4]): 0.29
ΔE/10 minutes (porcine trypsin [2]; substrate Pyr-Glu-Gly-Arg-pNA, amount inhibitor per assay 12 ng, control without inhibitor 0.85): 0.18
ΔE/10 minutes (porcine trypsin [2]; substrate Pyr-Glu-Gly-Arg-pNA, amount inhibitor per assay 15 ng, control without inhibitor 0.85): 0.13
Substance: Aprotinin [reference compound]

Ki (anionic human Trypsin): < 10 pM
Ki (cationic human Trypsin): < 10 pM
Substance: Arg-15-Glu-52-aprotinin

active molecules contained (porcine trypsin [1]; concluded from the trypsin inhibition dose-response curves against authentic aprotinin): ~100%
trypsin inhibitory activity, dose-response curve compared with aprotinin (porcine trypsin [1]; substrate Benzoyl-Arg-pNA, FIG. 11): identical dose-response curves
ΔE/10 minutes (porcine trypsin [1]; substrate Benzoyl-Arg-pNA, amount inhibitor per assay 60 ng): 0.77
ΔE/10 minutes (porcine trypsin [1]; substrate Benzoyl-Arg-pNA, amount inhibitor per assay 120 ng): 0.68
ΔE/10 minutes (porcine trypsin [1]; substrate Benzoyl-Arg-pNA, amount inhibitor per assay 180 ng): 0.58
ΔE/10 minutes (porcine trypsin [1]; substrate Benzoyl-Arg-pNA, amount inhibitor per assay 240 ng): 0.44
ΔE/10 minutes (porcine trypsin [1]; [3]): 0.30
equilibrium constants of the trypsin-inhibitor complexes compared with aprotinin (porcine trypsin [2]; concluded from the trypsin inhibition dose-response curves): in the same order of magnitude
trypsin inhibitory activity, dose-response curve compared with aprotinin (porcine trypsin [2]; substrate Pyr-Glu-Gly-Arg-pNA, FIG. 11): identical dose-response curves
ΔE/10 minutes (porcine trypsin [2]; substrate Pyr-Glu-Gly-Arg-pNA, amount inhibitor per assay 1.8 ng, control without inhibitor 0.84): 0.67
ΔE/10 minutes (porcine trypsin [2]; substrate Pyr-Glu-Gly-Arg-pNA, amount inhibitor per assay 3.6 ng, control without inhibitor 0.84): 0.56
ΔE/10 minutes (porcine trypsin [2]; substrate Pyr-Glu-Gly-Arg-pNA, amount inhibitor per assay 5.4 ng, control without inhibitor 0.84): 0.47
ΔE/10 minutes (porcine trypsin [2]; substrate Pyr-Glu-Gly-Arg-pNA, amount inhibitor per assay 7.2 ng, control without inhibitor 0.84): 0.32
ΔE/10 minutes (porcine trypsin [2]; [4]): 0.28
Substance: Glu-52-aprotinin
